The values that follow come from ChEMBL document CHEMBL6103624, “Design, Synthesis, and Biological Evaluation of Marchantin C-NO Donor Hybrids for Overcoming Pgp-Mediated Drug Resistance by Targeting Lysosome” (J Med Chem, 2025).

The test system of data set [1] is MCF7. The data set can be described thus: Antiproliferative activity against human MCF7 cells assessed as inhibition of cell growth incubated for 48 hrs by MTT assay. It is filed as functional, cell-based. The settings on record: MCF7, 48 h. Background: Tetrazolium dyes change colour on reduction, which living cells bring about.
The test system of data set [2] is NCI/ADR-RES. Nature of the data set: Antiproliferative activity against human MCF7ADR cells assessed as inhibition of cell growth incubated for 48 hrs by MTT assay. In kind it is functional, cell-based.
Data set [3] can be described thus: Selectivity index, ratio of IC50 for antiproliferative activity against human MCF7 cells assessed as inhibition of cell growth to IC50 for antiproliferative activity against human MCF7ADR cells assessed as inhibition of cell growth. It is filed as functional.
In a further data set the test system is A549. Nature of the data set: Antiproliferative activity against human A549 cells assessed as inhibition of cell growth incubated for 48 hrs by MTT assay. It is filed as functional, cell-based. The settings on record: A549, 48 h.
A further data set relates to A549/TR. The data set can be described thus: Antiproliferative activity against human A549/Taxol cells assessed as inhibition of cell growth incubated for 48 hrs by MTT assay. In kind it is functional, cell-based.
The nature of data set [4]: Selectivity index, ratio of IC50 for antiproliferative activity against human A549 cells assessed as inhibition of cell growth to IC50 for antiproliferative activity against human A549/Taxol cells assessed as inhibition of cell growth. It is filed as functional.
Another data set deals with HepG2. Nature of the data set: Antiproliferative activity against human HepG2 cells assessed as inhibition of cell growth incubated for 48 hrs by MTT assay. In kind it is functional, cell-based. The conditions noted are these: HepG2, 48 h.
The subject of a further data set is PC-3. Nature of the data set: Antiproliferative activity against human PC-3 cells assessed as inhibition of cell growth incubated for 48 hrs by MTT assay. In kind it is functional, cell-based. The conditions noted are these: PC-3, 48 h.
Data set [5] can be described thus: Cytotoxicity against human BEAS-2B cells assessed as inhibition of cell growth incubated for 48 hrs by MTT assay. In kind it is toxicity, cell-based.
Data set [6] in a line: Selectivity index, ratio of IC50 for human MCF-10A to IC50 for human MDA-MB-231 cells. The settings on record: MCF-10A cells and MDA-MB-231 cells, read-out: Ratio IC50. In kind it is toxicity.
Data set [7] can be described thus: Cytotoxicity against human MCF-10A cells assessed as inhibition of cell growth incubated for 48 hrs by MTT assay. It is filed as toxicity, cell-based.
Data set [8] concerns MCF7. The data set can be described thus: Induction of NO release in human MCF7 cells at 100 uM measured for 5 hrs by Griess reagent assay. It is filed as functional, cell-based. On the technique in general: The Griess reaction detects nitrite, a stable product of nitric oxide.
For data set [9], the system named is NCI/ADR-RES. Nature of the data set: Induction of NO release in human MCF7ADR cells at 100 uM measured for 5 hrs by Griess reagent assay. In kind it is functional, cell-based.
The subject of data set [10] is NCI/ADR-RES. Nature of the data set: Induction of NO release in human MCF7ADR cells at 100 uM by Griess reagent assay. It is filed as functional, cell-based. The conditions noted are these: time <= 10.0 hrs.

Calls of active or inactive are those of the source. No cut-off for these calls is given here.

The IC50 is the midpoint of a concentration-inhibition curve. On to `O=S(=O)(c1ccccc1)c1c(OCCOc2cccc3c2Oc2cccc(c2)CCc2ccc(O)c(c2)Oc2ccc(cc2)CC3)no[n+]1[O-]`, for which the IC50 was 9.1 µM in the data set on MCF7 [1]; 0.9 µM in the data set on NCI/ADR-RES [2]; 19.1 µM with A549; 3.39 µM in the data set on A549/TR; 1.69 µM in the data set with HepG2; 2.92 µM in the data set on PC-3. Besides, the figures for the “Ratio IC50” value in [3] and in data set [4] were 10 and 6, respectively. For the same compound, the concentration for half-maximal inhibition (IC50) at 48 h in data set [5] amounted to 13.7 µM.
For the compound `CCN(CC)c1ccc2cc(C(=O)OCCCCCOc3cc4ccc(=O)oc4cc3OCCCCCCOc3no[n+]([O-])c3S(=O)(=O)c3ccccc3)c(=O)oc2c1`, the selectivity ratio in data set [6] was > 6250.
`O=S(=O)(c1ccccc1)c1c(OCCCCCCOc2cccc3c2Oc2cccc(c2)CCc2ccc(O)c(c2)Oc2ccc(cc2)CC3)no[n+]1[O-]`: the IC50 in the data set with MCF7 [1] was > 20 µM; in the data set with NCI/ADR-RES [2], 0.37 µM; with A549, > 40 µM; in the data set with A549/TR it was 6.65 µM; in the data set with HepG2 it was > 20 µM; in the data set on PC-3, > 20 µM. Besides, the figures for the “Ratio IC50” value in data set [3] and in [4] were >54 and >6, respectively. The IC50 at 48 h in [7] and in [5] was > 20 µM each time.
For the compound `COc1cccc2c1C(=O)c1c(O)c3c(c(O)c1C2=O)C[C@@](O)(C(=O)CO)C[C@@H]3O[C@H]1C[C@H](N)[C@H](O)[C@H](C)O1` [DOXORUBICIN], the IC50 with MCF7 [1] was < 0.025 µM; in the data set on NCI/ADR-RES [2] it was 32 µM. Moreover, the “Ratio IC50” value in data set [3] is <0.001. Further, the IC50 at 48 h in data set [7] and in data set [5] was < 2.5 µM throughout.
With `O=S(=O)(c1ccccc1)c1c(OCCCCOc2cccc3c2Oc2cccc(c2)CCc2ccc(O)c(c2)Oc2ccc(cc2)CC3)no[n+]1[O-]`, the half-inhibitory concentration (IC50) in the data set with MCF7 [1] was > 20 µM; with NCI/ADR-RES [2], 0.098 µM; in the data set with A549 it was > 40 µM; in the data set on A549/TR, 5.92 µM; in the data set on HepG2 it was > 20 µM; in the data set on PC-3, > 20 µM. Besides, the figures for the “Ratio IC50” value in [3] and in [4] were >204 and >7, respectively. Besides, the IC50 at 48 h was 8.32 µM in data set [7] and > 20 µM in [5].
For the compound `O=C(/N=c1\c[n+](-c2ccccc2)[n-]o1)Oc1cccc2c1Oc1cccc(c1)CCc1ccc(O)c(c1)Oc1ccc(cc1)CC2`, the IC50 was > 20 µM with MCF7 [1]; > 20 µM in the data set with NCI/ADR-RES [2]; > 40 µM in the data set on A549; > 20 µM with HepG2; > 20 µM with PC-3. Moreover, the outcome in the data set on MCF7 [8] and in the data set on NCI/ADR-RES [9] was inactive. In addition, the Activity entry with NCI/ADR-RES [10] is “Time-dependent-effect”.
On to `O=[N+]([O-])OCC(COc1cccc2c1Oc1cccc(c1)CCc1ccc(O)c(c1)Oc1ccc(cc1)CC2)O[N+](=O)[O-]` (stereo not drawn), for which the concentration for half-maximal inhibition (IC50) in the data set with MCF7 [1] was > 20 µM; in the data set on NCI/ADR-RES [2], > 20 µM; with A549 it was > 40 µM; in the data set with HepG2, > 20 µM; in the data set with PC-3, 11.7 µM. The outcome in the data set with MCF7 [8] and in the data set on NCI/ADR-RES [9] was inactive. Also, in the data set on NCI/ADR-RES [10], the Activity entry is “Time-dependent-effect”.
As for `O=S(=O)(c1ccccc1)c1c(OCCOCCOc2cccc3c2Oc2cccc(c2)CCc2ccc(O)c(c2)Oc2ccc(cc2)CC3)no[n+]1[O-]`, the IC50 with MCF7 [1] is 15.2 µM; in the data set with NCI/ADR-RES [2], 1.01 µM; with A549, > 40 µM; in the data set on A549/TR, 12.1 µM; in the data set on HepG2 it was > 20 µM; in the data set on PC-3, 4.41 µM. For the same compound, the “Ratio IC50” value in [3] is on record as 15; in data set [4], >3. For the same compound, the figures for the IC50 at 48 h in [7] and in [5] were < 2.5 µM and 5.14 µM, respectively.
With `O=[N+]([O-])c1ccc(O/N=[N+](\[O-])N2CCN(Cc3ccc4c(c3O)Oc3cccc(c3)CCc3ccc(O)c(c3)Oc3ccc(cc3)CC4)CC2)c([N+](=O)[O-])c1`, the concentration for half-maximal inhibition (IC50) was > 20 µM in the data set on MCF7 [1]; > 3 µM with NCI/ADR-RES [2]; > 40 µM with A549; > 20 µM in the data set on HepG2; > 20 µM with PC-3. Moreover, the “Ratio IC50” value in data set [3] is reported as <7. Further, the Activity result in the data set with NCI/ADR-RES [10] is “Time-dependent-effect”.
